Reference: patent US20230312529A1, “PYRIMIDINE SMALL-MOLECULE COMPOUND AND APPLICATION THEREOF” (WENZHOU MEDICAL UNIVERSITY, priority 2021, published 2023)
“And” between values parts separate entries of the source, which are not always exact repeats. Equal entries are not always repeated.

Columns and labels:
PDGFRα = PDGFRα (Homo sapiens (Human), UniProt P16234); assay: Caliper Mobility Shift kinase inhibition test; format: biochemical; settings: read-out: inhibitory rate on PDGFR-α, 100 nM
Method: (§1) The method adopted in the test was Caliper Mobility Shift Assay, which was a detection platform based on the mobility detection technology of microfluidic chip technology. […] Collected data was tested on Caliper to yield that inhibition ratio to kinase activity=(max−conversion)/(max−min)×100. “max” was DMSO control without adding compound, and “min” was low control. When IC50 was determined, each sample was provided with 10 dilutions, each with 2 multiple holes, and repeated for 3 times.

PDGFRβ = PDGFRβ (Homo sapiens (Human), UniProt P09619); assay: Caliper Mobility Shift kinase inhibition test; format: biochemical; settings: for inhibition at 0.1 µM / inhibitory rate on PDGFR-β: 100 nM; for inhibition at 0.1 µM: read-out: inhibitory rate on PDGFR-β; for IC50: read-out: IC50 PDGFR-β
Method: (§2) The method adopted in the test was Caliper Mobility Shift Assay, which was a detection platform based on the mobility detection technology of microfluidic chip technology. Test steps: 1.25× kinase reaction buffer (62.5 mmol/L HEPES, pH 7.5; 0.001875% Brij-35; 12.5 mmol/L MgCl2; 2.5 mM DTT) and kinase reaction stop solution (100 mmol/L HEPES, pH 7.5; 0.015% Brij-35; 0.2% Coating Reagent #3) were configured. […] Collected data was tested on Caliper to yield that inhibition ratio to kinase activity=(max−conversion)/(max−min)×100. “max” was DMSO control without adding compound, and “min” was low control. When IC50 was determined, each sample was provided with 10 dilutions, each with 2 multiple holes, and repeated for 3 times.
(§3) According to the above-mentioned method for measuring kinase inhibitory activity, the inhibitory activity of the active compounds on other multiple kinases was measured to characterize the kinase selectivity of active inhibitors.

FLT3 = FLT3 (Homo sapiens (Human), UniProt P36888); assay: Caliper Mobility Shift kinase inhibition test; format: biochemical; settings: 100 nM; for inhibition at 0.1 µM: read-out: inhibitory rate on FLT3
FLT3, sequence (P36888 27-993): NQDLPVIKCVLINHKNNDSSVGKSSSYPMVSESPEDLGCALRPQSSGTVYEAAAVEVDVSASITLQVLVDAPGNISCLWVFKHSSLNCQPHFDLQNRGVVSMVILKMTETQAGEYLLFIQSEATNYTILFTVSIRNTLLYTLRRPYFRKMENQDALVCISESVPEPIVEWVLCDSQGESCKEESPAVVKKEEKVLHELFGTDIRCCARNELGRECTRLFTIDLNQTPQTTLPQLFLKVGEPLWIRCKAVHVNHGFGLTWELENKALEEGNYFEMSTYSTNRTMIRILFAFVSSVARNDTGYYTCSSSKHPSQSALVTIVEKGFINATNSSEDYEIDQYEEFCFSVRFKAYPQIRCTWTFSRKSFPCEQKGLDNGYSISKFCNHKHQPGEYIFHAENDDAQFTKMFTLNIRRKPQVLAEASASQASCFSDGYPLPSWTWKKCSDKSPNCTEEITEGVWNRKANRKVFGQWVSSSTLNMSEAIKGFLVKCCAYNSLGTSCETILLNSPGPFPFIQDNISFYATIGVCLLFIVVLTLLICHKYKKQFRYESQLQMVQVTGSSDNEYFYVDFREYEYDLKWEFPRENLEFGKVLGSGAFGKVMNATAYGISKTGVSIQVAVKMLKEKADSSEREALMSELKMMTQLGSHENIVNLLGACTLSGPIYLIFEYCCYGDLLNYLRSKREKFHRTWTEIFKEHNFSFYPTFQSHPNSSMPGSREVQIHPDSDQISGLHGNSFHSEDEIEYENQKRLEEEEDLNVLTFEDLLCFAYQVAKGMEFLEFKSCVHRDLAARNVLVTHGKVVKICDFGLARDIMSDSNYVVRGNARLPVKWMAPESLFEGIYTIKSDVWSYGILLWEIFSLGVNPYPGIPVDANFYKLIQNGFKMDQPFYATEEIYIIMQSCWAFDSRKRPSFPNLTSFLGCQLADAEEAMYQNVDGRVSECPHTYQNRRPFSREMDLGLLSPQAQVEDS
Method: as §2

MG-63 osteosarcoma cells = assay: MTT assay on osteosarcoma cells; format: cell-based; settings: Homo sapiens, 48 hours, read-out: Inhibitory activity (IC50) MG-63
Method: (§4) Logarithmic osteosarcoma cells were inoculated into a 96-well plate with a cell concentration of 1,500 cell/well for 6 hours by using MTT assay, and each well was filled with 200 μL of cell suspension. […] The samples were cultured in an incubator for 48 hours (37° C., 5% CO2), and 20 v L of MTT (3-(4,5-dimethylthiazole-2)-2,5-diphenyltetrazole) were added into each hole. After continuous culture for 4 hours, the culture solution was discarded by suction, and 200 v L of DMSO were added to each well. […] Calculation method of IC50 value: the IC50 values of the samples were calculated by curve fitting with GraphPad Prism software.

[1] = test system: MNNG/HOS osteosarcoma cells; assay: MTT assay on osteosarcoma cells; format: cell-based; settings: 48 hours, read-out: Inhibitory activity (IC50) MNNG/HOS
Method: as §4

[2] = test system: SAOS-2 osteosarcoma cells; assay: MTT assay on osteosarcoma cells; format: cell-based; settings: Homo sapiens, 48 hours, read-out: Inhibitory activity (IC50) SAOS-2
Method: as §4

U2OS osteosarcoma cells = assay: MTT assay on osteosarcoma cells; format: cell-based; settings: Homo sapiens, 48 hours, read-out: Inhibitory activity (IC50) U2OS
Method: as §4

[3] = test system: human normal retinal cells ARPE-19; assay: MTT assay on human retinal cells; format: cell-based; settings: Homo sapiens, ARPE-19; MTT; read-out: Inhibitory activity (IC50) ARPE-19
[4] = test system: human brain microvascular endothelial cells (HCMEC/D3); assay: MTT assay on human neovascular cells; format: cell-based; settings: Homo sapiens, hCMEC/D3; MTT; read-out: Inhibitory activity (IC50) HCMEC-D3
[5] = test system: human cerebrovascular pericytes (HBVP); assay: MTT assay on human neovascular cells; format: cell-based; settings: Homo sapiens; MTT; read-out: Inhibitory activity (IC50) HBVP
ABL1 = ABL1 (Homo sapiens (Human), UniProt P00519); assay: Caliper Mobility Shift kinase inhibition test; format: biochemical; settings: 100 nM; for inhibition at 0.1 µM: read-out: inhibitory rate on ABL1
ABL1, sequence (P00519 whole entry): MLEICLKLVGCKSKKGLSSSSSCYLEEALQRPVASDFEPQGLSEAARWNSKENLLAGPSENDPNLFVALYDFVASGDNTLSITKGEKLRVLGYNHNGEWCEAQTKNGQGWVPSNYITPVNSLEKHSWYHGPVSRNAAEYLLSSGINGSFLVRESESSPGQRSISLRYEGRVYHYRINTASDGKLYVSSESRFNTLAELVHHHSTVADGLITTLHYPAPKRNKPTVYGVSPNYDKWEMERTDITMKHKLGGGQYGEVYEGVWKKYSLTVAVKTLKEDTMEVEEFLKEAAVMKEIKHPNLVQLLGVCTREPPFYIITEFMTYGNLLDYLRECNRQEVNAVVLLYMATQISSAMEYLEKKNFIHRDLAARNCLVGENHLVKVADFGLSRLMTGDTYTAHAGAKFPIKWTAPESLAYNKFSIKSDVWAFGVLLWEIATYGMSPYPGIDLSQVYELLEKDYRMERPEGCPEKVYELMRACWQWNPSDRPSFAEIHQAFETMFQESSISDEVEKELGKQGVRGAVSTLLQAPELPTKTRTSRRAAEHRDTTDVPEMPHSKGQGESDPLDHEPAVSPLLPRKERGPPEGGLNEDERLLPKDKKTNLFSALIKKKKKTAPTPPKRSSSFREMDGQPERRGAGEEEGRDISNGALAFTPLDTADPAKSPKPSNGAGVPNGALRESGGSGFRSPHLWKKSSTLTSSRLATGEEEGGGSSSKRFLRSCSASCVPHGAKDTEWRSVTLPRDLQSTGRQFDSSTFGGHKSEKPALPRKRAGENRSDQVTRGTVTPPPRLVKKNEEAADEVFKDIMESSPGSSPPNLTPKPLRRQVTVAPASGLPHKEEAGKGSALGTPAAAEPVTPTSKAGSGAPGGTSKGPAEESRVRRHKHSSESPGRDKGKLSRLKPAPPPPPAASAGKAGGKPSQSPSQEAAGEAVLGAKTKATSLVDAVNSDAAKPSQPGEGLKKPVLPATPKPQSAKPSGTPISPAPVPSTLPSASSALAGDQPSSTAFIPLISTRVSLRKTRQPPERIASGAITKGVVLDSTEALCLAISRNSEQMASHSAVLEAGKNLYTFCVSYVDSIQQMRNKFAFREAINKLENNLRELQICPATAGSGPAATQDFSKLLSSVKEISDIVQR
Method: as §1

FGFR2 = FGFR2 (Homo sapiens (Human), UniProt P21802); assay: Caliper Mobility Shift kinase inhibition test; format: biochemical
FGFR2, sequence (P21802 22-821, species assumed): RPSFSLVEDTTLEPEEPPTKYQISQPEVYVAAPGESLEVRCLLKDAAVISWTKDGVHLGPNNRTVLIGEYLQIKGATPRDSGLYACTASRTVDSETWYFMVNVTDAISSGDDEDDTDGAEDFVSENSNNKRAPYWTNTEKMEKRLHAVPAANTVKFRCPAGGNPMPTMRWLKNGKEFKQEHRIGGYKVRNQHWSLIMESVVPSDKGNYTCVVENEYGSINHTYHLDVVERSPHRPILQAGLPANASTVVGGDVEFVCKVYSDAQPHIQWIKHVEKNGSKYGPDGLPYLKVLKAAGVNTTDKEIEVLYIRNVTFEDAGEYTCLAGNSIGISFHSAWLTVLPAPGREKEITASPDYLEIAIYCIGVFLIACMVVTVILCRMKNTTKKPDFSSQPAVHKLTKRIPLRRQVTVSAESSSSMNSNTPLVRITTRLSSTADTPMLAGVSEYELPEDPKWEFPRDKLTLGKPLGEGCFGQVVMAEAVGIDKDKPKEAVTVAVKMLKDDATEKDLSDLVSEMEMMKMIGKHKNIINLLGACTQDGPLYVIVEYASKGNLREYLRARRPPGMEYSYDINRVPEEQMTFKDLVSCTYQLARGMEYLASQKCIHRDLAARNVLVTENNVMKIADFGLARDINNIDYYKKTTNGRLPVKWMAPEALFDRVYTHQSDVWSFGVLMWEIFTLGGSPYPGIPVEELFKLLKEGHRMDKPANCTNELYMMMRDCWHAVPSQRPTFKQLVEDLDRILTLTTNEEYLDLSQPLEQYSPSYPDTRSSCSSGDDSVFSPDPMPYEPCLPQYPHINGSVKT
Method: as §2, §3

JAK1 = JAK1 (Homo sapiens (Human), UniProt P23458); assay: Caliper Mobility Shift kinase inhibition test; format: biochemical
JAK1, sequence (P23458 whole entry, species assumed): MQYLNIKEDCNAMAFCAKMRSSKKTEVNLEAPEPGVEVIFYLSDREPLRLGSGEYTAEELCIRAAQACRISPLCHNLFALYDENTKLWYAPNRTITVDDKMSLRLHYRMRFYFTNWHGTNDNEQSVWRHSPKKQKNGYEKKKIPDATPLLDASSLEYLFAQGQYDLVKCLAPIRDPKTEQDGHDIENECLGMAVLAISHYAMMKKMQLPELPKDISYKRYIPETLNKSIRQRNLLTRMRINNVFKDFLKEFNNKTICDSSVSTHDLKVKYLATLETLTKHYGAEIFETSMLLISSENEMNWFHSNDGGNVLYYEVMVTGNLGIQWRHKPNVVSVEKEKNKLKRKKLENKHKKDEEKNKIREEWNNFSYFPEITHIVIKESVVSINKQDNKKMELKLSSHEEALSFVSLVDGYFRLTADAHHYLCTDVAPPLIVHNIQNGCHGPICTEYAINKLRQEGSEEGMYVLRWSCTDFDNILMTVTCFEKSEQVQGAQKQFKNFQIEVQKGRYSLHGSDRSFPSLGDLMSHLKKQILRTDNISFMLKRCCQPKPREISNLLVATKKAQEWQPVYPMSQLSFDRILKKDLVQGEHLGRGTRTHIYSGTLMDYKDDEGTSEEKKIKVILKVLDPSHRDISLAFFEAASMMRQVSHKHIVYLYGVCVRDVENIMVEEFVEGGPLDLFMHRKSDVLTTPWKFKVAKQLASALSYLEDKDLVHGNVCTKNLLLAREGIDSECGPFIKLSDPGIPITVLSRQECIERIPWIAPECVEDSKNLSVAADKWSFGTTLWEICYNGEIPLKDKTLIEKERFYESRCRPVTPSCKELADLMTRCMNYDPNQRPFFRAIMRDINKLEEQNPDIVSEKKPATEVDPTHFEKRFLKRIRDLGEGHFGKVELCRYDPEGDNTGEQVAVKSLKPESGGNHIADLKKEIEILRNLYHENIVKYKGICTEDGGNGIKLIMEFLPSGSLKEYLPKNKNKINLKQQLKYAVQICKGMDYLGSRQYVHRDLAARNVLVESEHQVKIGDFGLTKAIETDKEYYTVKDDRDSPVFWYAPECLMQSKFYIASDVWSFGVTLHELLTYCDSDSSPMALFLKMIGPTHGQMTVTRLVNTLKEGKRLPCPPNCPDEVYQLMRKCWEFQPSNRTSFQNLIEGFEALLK
Method: as §2, §3

ALK = ALK (Homo sapiens (Human), UniProt Q9UM73); assay: Caliper Mobility Shift kinase inhibition test; format: biochemical
Method: as §2

IKK β = IKK β (Homo sapiens (Human), UniProt O14920); assay: Caliper Mobility Shift kinase inhibition test; format: biochemical
IKK β, sequence (O14920 whole entry, species assumed): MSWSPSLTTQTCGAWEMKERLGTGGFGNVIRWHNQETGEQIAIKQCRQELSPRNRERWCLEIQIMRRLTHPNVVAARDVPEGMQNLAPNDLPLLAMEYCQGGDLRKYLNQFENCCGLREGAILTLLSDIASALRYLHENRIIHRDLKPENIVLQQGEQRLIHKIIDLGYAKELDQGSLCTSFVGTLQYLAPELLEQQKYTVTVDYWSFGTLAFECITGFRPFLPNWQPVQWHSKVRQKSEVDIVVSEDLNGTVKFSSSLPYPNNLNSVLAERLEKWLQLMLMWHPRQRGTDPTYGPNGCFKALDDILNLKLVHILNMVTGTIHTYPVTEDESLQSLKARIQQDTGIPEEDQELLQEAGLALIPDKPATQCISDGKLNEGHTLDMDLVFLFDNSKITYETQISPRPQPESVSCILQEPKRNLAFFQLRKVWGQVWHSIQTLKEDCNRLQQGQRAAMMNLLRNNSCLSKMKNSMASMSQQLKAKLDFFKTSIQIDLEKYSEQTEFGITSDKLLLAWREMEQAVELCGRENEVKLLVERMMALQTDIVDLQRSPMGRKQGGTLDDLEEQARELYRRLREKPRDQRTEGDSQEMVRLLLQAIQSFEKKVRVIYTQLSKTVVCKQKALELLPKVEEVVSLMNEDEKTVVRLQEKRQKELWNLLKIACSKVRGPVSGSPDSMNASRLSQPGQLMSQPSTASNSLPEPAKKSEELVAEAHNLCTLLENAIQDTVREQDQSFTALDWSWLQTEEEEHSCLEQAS
Method: as §2

inhibition at 0.1 µM (PDGFRα) [%] | inhibition at 0.1 µM (PDGFRβ) [%] | inhibition at 0.1 µM (FLT3) [%] | inhibition at 0.1 µM (ABL1) [%] | IC50 (FGFR2) [nM] | IC50 (JAK1) [nM] | IC50 (PDGFRβ) | IC50 (ALK) [nM] | IC50 (IKK β) [nM] | inhibitory rate on ABL1 (ABL1) [%] | inhibitory rate on PDGFR-β (PDGFRβ) [%] | inhibitory rate on FLT3 (FLT3) [%] | SMILES | IC50 (MG-63 osteosarcoma cells) [nM] | IC50 [1] [µM] | IC50 [2] [nM] | IC50 (U2OS osteosarcoma cells) [nM] | IC50 [3] [µM] | IC50 [4] [µM] | IC50 [5] [µM] | inhibitory activity on PDGFRβ (in words) (PDGFRβ)
– | 80.2 | 82.6 | 87.5 | > 1000 | 320 | 40 nM | 5.8 | > 1000 | – | – | – | CCN1CCN(c2ccc(Nc3ncc(C)c(Nc4ccc5cn[nH]c5c4)n3)c(OC)c2)CC1 [Compound 6h, N^2-(4-(4-ethylpiperazine-1-yl)-2-methoxyphenyl)-N^4-(1H-indazol-6-yl)-5-methylpyrimidine-2,4-diamine] | – | – | – | – | – | – | – | –
– | – | – | – | 102 | 6 | 19 nM | 95 | 181 | 81.2 | 82.4 | 82.3 | Cc1cnc(Nc2ccc(C(=O)NCCN3CCOCC3)cc2)nc1Nc1ccc2cn[nH]c2c1 [Compound 6n] | – | – | – | – | – | – | – | –
– | 63.4 | 79.5 | 78.8 | > 1000 | 199 | 72 nM | 7 | > 1000 | – | – | – | COc1cc(N2CCN(C)CC2)ccc1Nc1ncc(C)c(Nc2ccc3cn[nH]c3c2)n1 [Compound 6e, N^4-(1H-indazol-6-yl)-N^2-(2-methoxy-4-(4-methylpiperazine-1-yl)phenyl)-5-methylpyrimidine-2,4-diamine] | – | – | – | – | – | – | – | –
– | – | – | – | 540 | 72 | 103 nM | 476 | > 1000 | 50.6 | 48.5 | 74.6 | Cc1cnc(Nc2ccc(N3CCC(F)(F)CC3)cc2)nc1Nc1ccc2cn[nH]c2c1 [Compound 6c] | – | – | – | – | – | – | – | –
– | 70.3 | 78.4 | 59.6 | 117 | 99 | 70.3 nM and 39 nM | 186 | 619 | – | – | – | Cc1cnc(Nc2ccc(N3CCS(=O)(=O)CC3)cc2)nc1Nc1ccc2cn[nH]c2c1 [Compound 6d, 4-(4-((4-((1H-indazol-6-yl)amino)-5-methylpyrimidine-2-yl)amino)phenyl)thiomorpholine 1,1-dioxide] | – | – | – | – | – | – | – | –

More lines, now with the values behind:

SMILES | inhibition at 0.1 µM (PDGFRα) [%] | inhibition at 0.1 µM (PDGFRβ) [%] | inhibition at 0.1 µM (FLT3) [%] | inhibition at 0.1 µM (ABL1) [%] | IC50 (FGFR2) [nM] | IC50 (JAK1) [nM] | IC50 (PDGFRβ) | IC50 (ALK) [nM] | IC50 (IKK β) [nM] | inhibitory rate on ABL1 (ABL1) [%] | inhibitory rate on PDGFR-β (PDGFRβ) [%] | inhibitory rate on FLT3 (FLT3) [%] | IC50 (MG-63 osteosarcoma cells) [nM] | IC50 [1] [µM] | IC50 [2] [nM] | IC50 (U2OS osteosarcoma cells) [nM] | IC50 [3] [µM] | IC50 [4] [µM] | IC50 [5] [µM] | inhibitory activity on PDGFRβ (in words) (PDGFRβ)
Cc1ccc(Nc2nccc(N(C)c3ccc4c(C)n(C)nc4c3)n2)cc1S(N)(=O)=O [Pazopanib, reference compound] | 96.9 | 76.7 | 80.6 | – | – | – | – | – | – | – | – | – | > 100000 | 8.52 ± 0.868 | > 100000 | > 100000 | – | – | – | –
Cc1[nH]c(/C=C2\C(=O)Nc3ccc(F)cc32)c(C)c1C(=O)N[C@H]1CCN(C(=O)N(C)C)C1 [Vorolanib, reference compound] | – | – | – | – | – | – | – | – | – | – | – | – | – | – | – | – | 56.2 ± 3.23 | 34.3 ± 0.885 | 18.5 ± 10.5 | –
COc1cc(Nc2ncc(C)c(Nc3ccc4cn[nH]c4c3)n2)ccc1N1CCN(C)CC1 [Compound 6f, N^4-(1H-indazol-6-yl)-N^2-(3-methoxy-4-(4-methylpiperazine-1-yl)phenyl)-5-methylpyrimidine-2,4-diamine] | – | 97 | 97.8 | 98 | 61 | 31 | 2.6 nM | 11 | > 1000 | – | – | – | 841 ± 5 | 1.36 ± 0.019 | 720 ± 25 | 756 ± 1 | – | – | – | significant inhibitory activities
Cc1cnc(Nc2ccc(N3CCC(N4CCN(C)CC4)CC3)cc2)nc1Nc1ccc2cn[nH]c2c1 [Compound 6j, N^4-(1H-indazol-6-yl)-5-methyl-N^2-(4-(4-(4-methylpiperazine-1-y 1)piperidine-1-yl)phenyl)pyrimidine-2,4-diamine] | – | – | – | – | 89 | 14 | 12 nM | 23 | > 1000 | 87.6 | 85.4 | 91.0 | – | – | – | – | – | – | – | –
CNC(=O)c1cc(Oc2ccc(NC(=O)Nc3ccc(Cl)c(C(F)(F)F)c3)cc2)ccn1 [Sorafenib, reference compound] | – | – | – | – | – | – | – | – | – | – | – | – | – | – | – | – | 23.29 ± 0.143 | 6.32 ± 0.73 | 9.92 ± 0.598 | –
